This is an account of results in patent publication US8575186B2, “Epiminocycloalkyl[b] indole derivatives as serotonin sub-type 6 (5-HT6) modulators and uses thereof” (Albany Molecular Research, Inc., priority 2009, dated 2013).

Each structure is given as a SMILES string. Counter-ions that a name gives are not always drawn.

In general, melting point refers to the temperature of the solid-liquid transition. As usually defined, the Ki is a measure of affinity in units of concentration, obtained from inhibition or displacement.

human 5-HT6 receptor, sequence (P50406 whole entry): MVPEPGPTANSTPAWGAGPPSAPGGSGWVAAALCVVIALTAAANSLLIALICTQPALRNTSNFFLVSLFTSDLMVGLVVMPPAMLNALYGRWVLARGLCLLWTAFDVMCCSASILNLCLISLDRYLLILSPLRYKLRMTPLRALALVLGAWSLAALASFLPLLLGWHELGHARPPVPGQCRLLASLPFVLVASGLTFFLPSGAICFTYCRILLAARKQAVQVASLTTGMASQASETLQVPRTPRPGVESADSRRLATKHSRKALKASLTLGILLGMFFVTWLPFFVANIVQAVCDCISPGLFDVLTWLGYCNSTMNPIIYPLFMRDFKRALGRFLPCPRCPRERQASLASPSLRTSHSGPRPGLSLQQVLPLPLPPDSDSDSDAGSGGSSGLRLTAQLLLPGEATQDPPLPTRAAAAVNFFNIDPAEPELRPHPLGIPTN

System in the first data set: not given
Assay: not given
Conditions: not given
The molecule `Cn1c2c(c3cc(S(=O)(=O)c4ccc(CN)cc4)ccc31)C1CCC(C2)N1` (centres unmarked) (as salt: hydrochloride) [Example 33, 2-(4-Aminomethylphenyl)sulfonyl-5-methyl-5,6,7,8,9,10-hexahydro-7,10-epiminocyclohepta[b]indole dihydrochloride] had a melting point of 237 to 239 °C.

In turn, `CN(C)Cc1ccc(S(=O)(=O)c2ccc3c(c2)c2c(n3C)CC3CCC2N3)cc1` (centres unmarked) (as salt: hydrochloride) [Example 34, 2-[4-(N,N-Dimethylaminomethyl)phenyl]sulfonyl-5-methyl-5,6,7,8,9,10-hexahydro-7,10-epiminocyclohepta[b]indole dihydrochloride] displayed a melting point of 244 to 246 °C.

Consider `Cl.Cn1c2c(c3cc(S(=O)(=O)c4ccccc4)ccc31)C1CCC(C2)N1` (centres unmarked) [Example 27, 2-Phenylsulfonyl-5-methyl-5,6,7,8,9,10-hexahydro-7,10-epiminocyclohepta[b]indole hydrochloride], for which the melting point is 238 to 244 °C (dec.).

In turn, `Cl.Cn1c2c(c3cc(S(=O)(=O)c4ccc(C(F)(F)F)cc4)ccc31)C1CCC(C2)N1` (centres unmarked) [Example 29, 2-(4-Trifluoromethylphenyl)sulfonyl-5-methyl-5,6,7,8,9,10-hexahydro-7,10-epiminocyclohepta[b]indole hydrochloride] gave a melting point of 200 to 205 °C.

Take `Cl.Cn1c2c(c3cc(S(=O)(=O)c4cccc(OC(F)(F)F)c4)ccc31)C1CCC(C2)N1` (centres unmarked) [Example 39, 2-(3-Trifluoromethoxyphenyl)sulfonyl-5-methyl-5,6,7,8,9,10-hexahydro-7,10-epiminocyclohepta[b]indole hydrochloride]: the melting point was 193 to 196 °C.

`Cl.Cn1c2c(c3cc(S(=O)(=O)c4cccc(C#N)c4)ccc31)C1CCC(C2)N1` (centres unmarked) [Example 43, 2-(3-Cyanophenyl)sulfonyl-5-methyl-5,6,7,8,9,10-hexahydro-7,10-epiminocyclohepta[b]indole hydrochloride] showed a melting point of 211 to 214 °C.

Take `CN(C)c1cccc(S(=O)(=O)c2ccc3c(c2)c2c(n3C)CC3CCC2N3)c1.Cl` (centres unmarked) [Example 45, 2-[(3-N,N-Dimethylamino)phenyl]sulfonyl-5-methyl-5,6,7,8,9,10-hexahydro-7,10-epiminocyclohepta[b]indole hydrochloride]: the melting point was 204 to 208 °C (dec.).

Turning to `Cl.Cn1c2c(c3cc(S(=O)(=O)c4cccc(NC5CCCC5)c4)ccc31)C1CCC(C2)N1` (centres unmarked) [Example 48, 2-[(3-N-Cyclopentylamino)phenyl]sulfonyl-5-methyl-5,6,7,8,9,10-hexahydro-7,10-epiminocyclohepta[b]indole hydrochloride], the melting point is 211 to 217 °C.

`Cl.Cn1c2c(c3cc(S(=O)(=O)c4ccc5ccccc5c4)ccc31)C1CCC(C2)N1` (centres unmarked) [Example 50, 2-(2-Napthyl)sulfonyl-5-methyl-5,6,7,8,9,10-hexahydro-7,10-epiminocyclohepta[b]indole hydrochloride] displayed a melting point of 220 to 222 °C.

`Cl.Cn1c2c(c3cc(S(=O)(=O)c4ccc(N)cc4)ccc31)C1CCC(C2)N1` (centres unmarked) [Example 53, 2-(4-Aminophenyl)sulfonyl-5-methyl-5,6,7,8,9,10-hexahydro-7,10-epiminocyclohepta[b]indole hydrochloride]: the melting point fell in the range of 220 to 225 °C.

Take `Cl.Cn1c2c(c3cc(S(=O)(=O)c4ccsc4)ccc31)C1CCC(C2)N1` (centres unmarked) [Example 56, 2-(3-Thienyl)sulfonyl-5-methyl-5,6,7,8,9,10-hexahydro-7,10-epiminocyclohepta[b]indole hydrochloride]: the melting point is 208 to 212 °C (dec.).

For the molecule `Cl.Cn1c2c(c3cc(S(=O)(=O)c4cccc(-c5ccccc5)c4)ccc31)C1CCC(C2)N1` (centres unmarked) [Example 57, 2-[(3-Phenyl)-phenyl]sulfonyl-5-methyl-5,6,7,8,9,10-hexahydro-7,10-epiminocyclohepta[b]indole hydrochloride], the melting point was 230 to 235 °C (dec.).

`Cl.Cn1c2c(c3cc(S(=O)(=O)n4ccc5cc(F)ccc54)ccc31)C1CCC(C2)N1` (centres unmarked) [Example 63, 2-[1-(5-Fluoro)-indole]sulfonyl-5-methyl-5,6,7,8,9,10-hexahydro-7,10-epiminocyclohepta[b]indole hydrochloride]: the melting point was in the range of 218 to 220 °C.

For the molecule `COc1ccc2c(ccn2S(=O)(=O)c2ccc3c(c2)c2c(n3C)CC3CCC2N3)c1.Cl` (centres unmarked) [Example 66, 2-[1-(5-Methoxy)-indole]sulfonyl-5-methyl-5,6,7,8,9,10-hexahydro-7,10-epiminocyclohepta[b]indole hydrochloride], the melting point is 206 to 209 °C.

`Cc1cc(S(=O)(=O)c2cccc(F)c2)cc2c3c(n(C)c12)CC1CCC3N1.Cl` (centres unmarked) [Example 72, 2-(3-Fluorophenyl)sulfonyl-4,5-dimethyl-5,6,7,8,9,10-hexahydro-7,10-epiminocyclohepta[b]indole hydrochloride] displayed a melting point of 254 to 256 °C.

A further data set concerns the target human 5-HT6 receptor (Homo sapiens (Human), UniProt P50406). Kind of data set: radioligand binding assay (SPA format), [N-methyl-3H]-LSD. As to conditions: human 5HT6 Ki, human 5-HT6 receptor membranes, 10 nM [3H]-LSD.
As for `Cn1c2c(c3cc(S(=O)(=O)n4ccc5ccc(C#N)cc54)ccc31)C1CCC(C2)N1` (centres unmarked) [Example 199], the affinity, expressed as Ki, was 1.8 nM.

Molecule `COc1cc(S(=O)(=O)c2cccc(C(F)(F)F)c2)cc2c3c(n(C)c12)CC1CCC3N1` (centres unmarked) [Example 215] had a Ki of 1.8 nM.

On to `COc1cc(S(=O)(=O)c2cccc(C(F)(F)F)c2)cc2c3c(n(C)c12)CC1CCC3N1` (centres unmarked) [Example 216], for which the affinity corresponds to a Ki of 0.8 nM.

The data set is the same for the next values; noted with them: read-out: human 5HT6 Ki; human 5-HT6 receptor membranes, 10 nM [3H]-LSD.
`CC(C)n1c2c(c3cc(S(=O)(=O)c4ccccc4)ccc31)C1CCC(C2)N1` (centres unmarked) [Example 182]: the Ki worked out at 365 nM.

For the molecule `CN1C2CCC1c1c(n(C)c3ccc(S(=O)(=O)c4ccc5[nH]ccc5c4)cc13)C2` (centres unmarked) [Example 183], the inhibition constant (Ki) amounted to 0.42 nM.

Consider `CN1C2CCC1c1c(n(C)c3ccc(S(=O)(=O)c4ccc5[nH]ccc5c4)cc13)C2` (centres unmarked) [Example 184], for which the Ki was determined as 0.35 nM.

In the case of `CCN1C2CCC1c1c(n(C)c3ccc(S(=O)(=O)c4ccc5[nH]ccc5c4)cc13)C2` (centres unmarked) [Example 185], the inhibitory constant (Ki) amounted to 1.5 nM.

For `CCN1C2CCC1c1c(n(C)c3ccc(S(=O)(=O)c4ccc5[nH]ccc5c4)cc13)C2` (centres unmarked) [Example 186], the inhibition constant Ki came out at 0.77 nM.

Regarding `Cn1c2c(c3cc(S(=O)(=O)n4ccc5cc(Cl)ccc54)ccc31)C1CCC(C2)N1` (centres unmarked) [Example 195], the Ki was 4.6 nM.

As for `Cn1c2c(c3cc(S(=O)(=O)n4ccc5cc(Cl)ccc54)ccc31)C1CCC(C2)N1` (centres unmarked) [Example 196], the Ki is 1.2 nM.

Regarding `Cn1c2c(c3cc(S(=O)(=O)n4ccc5ccc(C#N)cc54)ccc31)C1CCC(C2)N1` (centres unmarked) [Example 200], the Ki is 0.75 nM.

Take `Cc1cn(S(=O)(=O)c2ccc3c(c2)c2c(n3C)CC3CCC2N3)c2ccccc12` (centres unmarked) [Example 201]: the inhibition constant (Ki) came to 1.4 nM.

On to `Cc1cn(S(=O)(=O)c2ccc3c(c2)c2c(n3C)CC3CCC2N3)c2ccccc12` (centres unmarked) [Example 202], for which the Ki is 0.72 nM.

In the case of `Cn1c2c(c3cc(S(=O)(=O)c4cccc(C(F)(F)F)c4)cc(O)c31)C1CCC(C2)N1` (centres unmarked) [Example 209], the Ki came out at 0.53 nM.

For `Cn1c2c(c3cc(S(=O)(=O)c4ccccc4F)cc(O)c31)C1CCC(C2)N1` (centres unmarked) [Example 210], the Ki is 1 nM.

As to `Cn1c2c(c3cc(S(=O)(=O)c4ccccc4F)cc(O)c31)C1CCC(C2)N1` (centres unmarked) [Example 211], the Ki amounted to 1.6 nM.

`COc1cc(S(=O)(=O)c2cccc(OC(F)F)c2)cc2c3c(n(C)c12)CC1CCC3N1` (centres unmarked) [Example 214]: the inhibition constant (Ki) is 3 nM.

In the case of `COc1cc(S(=O)(=O)c2cccc(F)c2)cc2c3c(n(C)c12)CC1CCC3N1` (centres unmarked) [Example 221], the inhibition constant (Ki) turned out to be 3.3 nM.

`COc1cc(S(=O)(=O)c2cccc(F)c2)cc2c3c(n(C)c12)CC1CCC3N1` (centres unmarked) [Example 222]: the Ki stood at 0.56 nM.

For the molecule `COc1cc(S(=O)(=O)c2cn(C)c3ccccc23)cc2c3c(n(C)c12)CC1CCC3N1` (centres unmarked) [Example 223], the Ki was 2.4 nM.

With `COc1cc(S(=O)(=O)c2cn(C)c3ccccc23)cc2c3c(n(C)c12)CC1CCC3N1` (centres unmarked) [Example 224], the Ki was determined as 0.99 nM.

For `COc1cc(S(=O)(=O)c2cccc(Cl)c2)cc2c3c(n(C)c12)CC1CCC3N1C` (centres unmarked) [Example 225], the Ki was 0.53 nM.

As to `COc1cc(S(=O)(=O)c2cccc(Cl)c2)cc2c3c(n(C)c12)CC1CCC3N1C` (centres unmarked) [Example 226], the inhibition constant (Ki) worked out at 1 nM.

As for `COc1cc(S(=O)(=O)c2cncc3ccccc23)cc2c3c(n(C)c12)CC1CCC3N1` (centres unmarked) [Example 232], the Ki turned out to be 9.6 nM.

In the case of `COc1cc(S(=O)(=O)c2cncc3ccccc23)cc2c3c(n(C)c12)CC1CCC3N1` (centres unmarked) [Example 233], the inhibition constant (Ki) turned out to be 3.7 nM.

Turning to `CCOc1cc(S(=O)(=O)c2ccccc2)cc2c3c(n(C)c12)CC1CCC3N1` (centres unmarked) [Example 234], the Ki amounted to 4.9 nM.

For the molecule `CCOc1cc(S(=O)(=O)c2ccccc2)cc2c3c(n(C)c12)CC1CCC3N1` (centres unmarked) [Example 235], the Ki turned out to be 0.42 nM.

As to `COc1cc(S(=O)(=O)n2ccc3ccccc32)cc2c3c(n(C)c12)CC1CCC3N1` (centres unmarked) [Example 240], the inhibitory constant (Ki) was determined as 0.85 nM.

With `COc1cc(S(=O)(=O)n2ccc3ccccc32)cc2c3c(n(C)c12)CC1CCC3N1` (centres unmarked) [Example 241], the Ki came to 0.35 nM.

With `COc1cc(S(=O)(=O)n2ccc3ccc(C#N)cc32)cc2c3c(n(C)c12)CC1CCC3N1` (centres unmarked) [Example 242], the inhibition constant (Ki) was determined as 2.4 nM.

With `COc1cc(S(=O)(=O)n2ccc3ccc(C#N)cc32)cc2c3c(n(C)c12)CC1CCC3N1` (centres unmarked) [Example 243], the inhibitory constant (Ki) came to 0.58 nM.

Turning to `Cn1c2c(c3cc(S(=O)(=O)c4cccc(-n5cccn5)c4)ccc31)C1CCC(C2)N1` (centres unmarked) [Example 244], the inhibitory constant (Ki) was 14 nM.

For `Cn1c2c(c3cc(S(=O)(=O)c4cccc(-n5cccn5)c4)ccc31)C1CCC(C2)N1` (centres unmarked) [Example 245], the inhibition constant Ki turned out to be 9 nM.

As to `COc1cc(S(=O)(=O)c2cccc(-n3cccn3)c2)cc2c3c(n(C)c12)CC1CCC3N1` (centres unmarked) [Example 246], the inhibition constant (Ki) is 10 nM.

`COc1cc(S(=O)(=O)c2cccc(-n3cccn3)c2)cc2c3c(n(C)c12)CC1CCC3N1` (centres unmarked) [Example 247]: the Ki amounted to 1.5 nM.
